Measurements reported in EP0449699A2, “Pyrazole derivatives as angiotensin II-receptor antagonists, process for their preparation and pharmaceutical compositions containing them” (LABORATOIRES UPSA, priority 1990, dated 1991).

Tested on: récepteurs surrénaliens de l'angiotensine II
Assay: Displacement of radioligand [125I]-SIAII specifically bound to adrenal angiotensin II receptors (rat adrenal homogenate)
Type: binding
Conditions: 60 min, 25°C
Source text: L'affinité des produits des exemples pour les récepteurs de l'angiotensine II est évaluée par technique de déplacement d'un radioligand spécifiquement fixé sur les récepteurs surrénaliens de l'angiotensine Il, chez le rat.
Une aliquote d'un homogénat de surrénales de rat incube en présence d'une concentration unique de [^125I]-SIAII (Sar^1, Tyr^4, Ile^8 - angiotensine II), antagoniste des récepteurs de l'angiotensine II, et de deux concentrations d'agents compétiteurs (10^-5 M, 10-^7 M) durant 60 min à 25°C.
La réaction est achevée par ajout de tampon, puis rapide filtration à travers des filtres de papier de verre. La liaison non spécifique est déterminée en présence d'angiotensine Il.
Les résultats sont exprimés, pour les concentrations testées, en pourcentage de déplacement du radioligand spécifiquement fixé sur les récepteurs surrénaliens de l'angiotensine Il.

% de déplacement du ligand marqué (competitor 1E-5 M, 10 µM) [%]	% de déplacement du ligand marqué (competitor 1E-7 M, 0.1 µM) [%]	SMILES
65	51	CCCc1nn(CC(F)(F)F)c(OCC(=O)OCC)c1Cc1ccc(-c2ccccc2-c2nn[nH]n2)cc1 [Exemple 84, ((Trifluoro-2,2,2 éthyl)-1 n-Propyl-3 [(tétrazolyl-5)-2' biphényl-yl-4]méthyl-4 pyrazol-yl-5] oxy acétate d'éthyle]
60	38	CCCc1nn(C)c(OCCO)c1Cc1ccc(-c2ccccc2-c2nn[nH]n2)cc1 [Exemple 88, [Méthyl-1 n-Propyl-3 [(tétrazolyl-5)-2'biphényl-yl-4]méthyl-4 pyrazol-yl-5]oxy-2 éthanol]
64	40	CCCCc1nn(C)c(OCC(=O)OCC)c1Cc1ccc(-c2ccccc2-c2nn[nH]n2)cc1 [Exemple 90, [Méthyl-1 n-Butyl-3 [(tétrazolyl-5)-2'blphényl-yl-4]méthyl-4 pyrazol-yl-5] oxy acétate d'éthyle]
75	70	CCCc1nn(CC(F)(F)F)c(OCCO)c1Cc1ccc(-c2ccccc2-c2nn[nH]n2)cc1 [Exemple 92, [(trifluoro-2,2,2 éthyl)-1 n-Propyl-3 [(tétrazolyl-5)-2'biphényl-yl-4]méthyl-4 pyrazol-yl-5] oxy-2 éthanol]
83	62	CCCc1nn(C)c(COC)c1Cc1ccc(NC(=O)c2ccccc2S(=O)(=O)O)cc1 [Exemple 107, Acide [(Méthyl-1 n-propyl-3 méthoxy méthyl-5 pyrazol-yl-4)méthylphényl-yl-4] amino carbonyl-2 benzène sulfonlque]
86	19	CCCc1n[nH]c(COC)c1Cc1ccc(NC(=O)c2ccccc2S(=O)(=O)O)cc1 [Exemple 108, Acide [(n-propyl-3 méthoxy méthyl-5 pyrazol-yl-4)méthylphényl-yl-4] amino carbonyl-2 benzène sulfonique]
80	57	CCCc1nn(C)c(CO)c1Cc1ccc(NC(=O)c2ccccc2S(=O)(=O)O)cc1 [Exemple 115, Acide [(méthyl-1 n-propyl-3 hydroxy méthyl-5 pyrazol-yl-4)méthylphényl-yl-4] amino carbonyl-2 benzène sulfonique]
82	12	CCCc1n[nH]c(CO)c1Cc1ccc(NC(=O)c2ccccc2S(=O)(=O)O)cc1 [Exemple 116, Acide ((n-Propyl-3 hydroxy méthyl-5 pyrazol-yl-4)méthylphényl-yl-4] amino carbonyl-2 benzène sulfonique]
61	35	CCCc1nn(C)c(COC)c1Cc1ccc(-c2ccccc2-c2nnn[nH]2)cc1 [Exemple 117, Méthyl-1 n-propyl-3 [(tétrazolyl-5)-2'biphényl-yl-4] méthyl-4 méthoxy méthyl-5 pyrazole]
67	35	CCCCc1nn(C)c(COC)c1Cc1ccc(-c2ccccc2-c2nnn[nH]2)cc1 [Exemple 118, Méthyl-1 n-Butyl-3 [(tétrazolyl-5)2' biphényl-yl-4] méthyl-4 méthoxy méthyl-5 pyrazole]
70	54	CCCCc1nn(CC(F)(F)F)c(COC)c1Cc1ccc(-c2ccccc2-c2nnn[nH]2)cc1 [Exemple 119, (Trifluoro-2,2,2 éthyl)-1 n-butyl-3 [(tétrazolyl-5)-2' biphényl-yl-4] méthyl-4 méthoxy méthyl-5 pyrazole]
74	33	CCCCc1nn(C)c(OCC(=O)N2CCOCC2)c1Cc1ccc(NC(=O)c2ccccc2NS(=O)(=O)C(F)(F)F)cc1 [Exemple 130, N-[[Méthyl-1 n-Butyl-3 [(trifluoro méthyl sulfonyl amino-2 benzoyl)amino-4 benryl]-4 pyrazol-yl-5]oxyacétyl] morpholine]
65	34	CCCc1nn(C)c(OCC(=O)OC)c1Cc1ccc(-c2ccccc2NS(=O)(=O)C(F)(F)F)cc1 [Exemple 135, [Méthyl-1 n-Propyl-3 (trifluoro méthyl sulfonyl amlmo-2'blphényl-yl-4)méthyl-4 pyrazol-yl-5] oxy acétatede méthyle]
63	5	CCCc1nn(C)c(OCCO)c1Cc1ccc(-c2ccccc2C(=O)O)cc1 [Exemple 137, [Méthyl-1 n-Propyl-3 (carboxy-2'blphényl-yl-4)méthyl-4 pyrazol-yl-5]oxy-2 éthanol]
64	9	CCCc1nn(C)c(OCC(=O)OCC)c1Cc1ccc(-c2ccsc2-c2nnn[nH]2)cc1 [Exemple 141, [Méthyl-1 n-propyl-3 [[(tétrazolyl-5)-2 thiényl-3]-4 benzyl]-4 pyrazol-yl-5] oxy acétate d'éthyle]
53	0	CCCc1nn(C)c(OCCO)c1Cc1ccc(-c2ccsc2C(=O)O)cc1 [Exemple 145, [Méthyl-1 n-Propyl-3 [(carboxy-2 thiényl-3)-4 benzyl]-4 pyrazol-yl-5] oxy-2 éthanol]

SMILES	% de déplacement du ligand marqué (competitor 1E-5 M, 10 µM) [%]	% de déplacement du ligand marqué (competitor 1E-7 M, 0.1 µM) [%]
CCCc1nn(C)c(OC(=O)N(C)C)c1Cc1ccc(-c2ccccc2-c2nn[nH]n2)cc1 [Exemple 86, Méthyl-1 n-Propyl-3 [(tétrazolyl-5)-2' biphényl-yl-4] méthyl-4 (N,N-diméthyl carbamoyl) oxy-5 pyrazole]	58	41
